Results reported in PubChem BioAssay AID1117361 (Southern Research Institute, 2015).

These compounds were tested against Protein Tat (Human immunodeficiency virus type 1 group M subtype B (isolate HXB2)) (UniProt P04608) (assay: inhibitors of Tat binding to TAR RNA, dose response, counter-screen for Vif-APOBEC3G degradation inhibitor project, biochemical, fluorescence polarization, FAM-labeled TAR RNA (AID 1117361)).
Sequence of Protein Tat (Human immunodeficiency virus type 1 group M subtype B (isolate HXB2)) (P04608 whole entry, looked up): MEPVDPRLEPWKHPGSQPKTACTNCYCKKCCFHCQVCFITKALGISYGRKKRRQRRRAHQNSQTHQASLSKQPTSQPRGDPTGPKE

SMILES | IC50
O=C(O)CCc1ccc(-c2cccs2)n1-c1ccc(C(=O)O)cc1 | 45.6 µM
CN(C)c1ncc(C2=C(Cl)C(=O)C(N3CCCC3)=C(Cl)C2=O)s1 | 1.54 µM
Cn1cnnc1SC/C(O)=C(\C#N)c1nc2ccccc2[nH]1 | 37.4 µM
Cc1ccc(C=C2C(Cl)=C(Cl)C(Cl)=C2Cl)cc1 | 4.67 µM
C=CCNc1nc2ccccc2nc1NS(=O)(=O)c1cccs1 | 45 µM
CCn1c(SC(C)C(=O)O)nc2sc3c(c2c1=O)CCC3 (configuration not stated) | 70.4 µM
CC1(CCl)N([O-])C2=C(CCCC2)[N+]1=O (configuration not stated) | 44.6 µM
CN(C)c1ccc(N=C/C=C2/N(C)c3ccccc3C2(C)C)cc1 | 64.4 µM
Clc1ccc(OCc2nn3c(-c4ccco4)nnc3s2)c(Cl)c1 | 51.5 µM
COC(C(=O)C(O)C(C)O)C1Cc2cc3cc(OC4CC(OC5CC(O)C(O)C(C)O5)C(O)C(C)O4)c(C)c(O)c3c(O)c2C(=O)C1OC1CC(OC2CC(OC3CC(O)C(OC)C(C)O3)C(O)C(C)O2)C(O)C(C)O1 (configuration not stated) | 27.9 µM
CCCC(=Nc1ccc(N)cc1)C1=C(O)C(C(=O)OC)C(C)(C)CC1=O (configuration not stated) | 6.88 µM
O=C(O)C1Nc2ccc(Br)cc2C2C=CCC12 (configuration not stated) | 3.73 µM
Cc1ccccc1Cc1c(C)nc2c(C(=O)NCc3ccc4c(c3)OCO4)cnn2c1C | 1.06 µM
COC(=O)COc1ccc(S(=O)(=O)Nc2cc(OC)ccc2OC)cc1 | 28.2 µM
Cc1ccc(/C=C/C(=O)Nc2ccc([N+](=O)[O-])c(NC(=O)/C=C/c3ccc(C)o3)c2)o1 | 7.2 µM
Cc1ccc(S(=O)(=O)OCC(=O)Nc2ccc(C(=O)O)c(O)c2)cc1 | 75.3 µM
CC(C)OC(=O)c1cccc(C(=O)O)n1 | 1.92 µM
N=C1/C(=C/c2ccc(Br)o2)C(=O)N=C2SC(CC(=O)N3CCCC3)=NN12 | 53.7 µM
Cc1cccc(N(C(=O)Cn2nnc3ccccc32)C(C(=O)NCc2ccco2)c2ccncc2)c1C (configuration not stated) | 27.6 µM
O=C(O)c1ccc(-n2cccc2/C=N\NC(=O)c2cc3cc(Br)ccc3o2)cc1 | 13.8 µM
O=[N+]([O-])c1cc(CN2CCCC2)c2cccnc2c1O | 8.94 µM
O=c1oc2c3c4c(cc2s1)CCCN4CCC3 | 26 µM
O=C1CC(Nc2ccc(N3CCOCC3)cc2)C(=O)N1C1CCCCC1 (configuration not stated) | 11.6 µM

SMILES | IC50
O=c1ccc2c(-c3ccccc3S(=O)(=O)O)c3ccc(O)c(O)c3oc-2c1O | 4.84 µM
O=C(COc1ccccc1Cl)c1ccc[nH]1 | 14.6 µM
CN(C)c1cc(Cl)c2nonc2c1N | 87.2 µM
CN(Cc1cnc2nc(N)nc(N)c2n1)c1ccc(C(=O)NC(CCC(=O)O)C(=O)O)cc1 (configuration not stated) | 40.1 µM
O=C(Cc1cc(=O)[nH][nH]1)N/N=C/C=C/c1ccccc1 | 43.1 µM
O=[n+]1c2c(n([O-])c3cc(F)c(F)cc31)CCCC2 | 11.1 µM
O=C(Cc1cccs1)N/N=C/C=C/c1ccco1 | 8.22 µM
O=C(N/N=C/C=C/c1ccco1)c1ccncc1 | 10.2 µM
O=C1/C(=C/c2ccco2)SC(=S)N1c1cccnc1 | 3.9 µM
COc1ccccc1NCCC(=O)OCC(=O)NCc1ccco1 | 58 µM
CN1CCC(N(C)C(=O)COc2ccccc2-c2ccccc2)CC1 | 63.7 µM
CCCCNC(=O)c1ccc2nc(-c3ccco3)c(-c3ccco3)nc2c1 | 6.84 µM
Cc1c(Cl)cccc1NS(=O)(=O)c1ccc2c(c1)C1C=CCC1C(c1ccc(C(=O)O)cc1)N2 (configuration not stated) | 8.54 µM
CC1CCCN(Cc2c(O)ccc3c2O/C(=C\c2ccco2)C3=O)C1 (configuration not stated) | 5.6 µM
CCOc1ccc2[nH]c(=O)c(CN(Cc3nnnn3Cc3ccco3)C3CCCCC3)cc2c1 | 24.9 µM
CCc1cc(=O)oc2cc(C)c(CN3CCCC3)c(O)c12 | 5.84 µM
Oc1ccc(N=Cc2ccc(OCc3ccccc3)cc2)cc1 | 47.5 µM
CCOC(=O)c1ccc(CC(=O)c2ccc(O)c(O)c2O)o1 | 74 µM
CC1=C(C#N)C(=O)N(C2CCS(=O)(=O)C2)C(=O)/C1=C\c1ccc(C)o1 (configuration not stated) | 1.35 µM
CCC1S/C(=C(\C#N)C(=O)NCc2ccco2)N(c2ccc(F)cc2)C1=O (configuration not stated) | 14.9 µM
O=C(NCC1CCCO1)c1cc(-c2ccco2)nc2ccccc12 (configuration not stated) | 49.5 µM
CCc1nc2oc3cc(OC)ccc3c(=O)c2c(=O)n1Cc1ccco1 | 24 µM
O=C1CCCC/C1=C/Nc1ccc2c(c1)OCO2 | 41.3 µM

SMILES | IC50
CN(CCc1ccccc1)C(=O)c1ccc(NC(=O)Cc2ccc(NC(=O)C3CCN(C(=O)CCc4ccccc4)CC3)cc2)cc1 | 44.3 µM
O=C(NC1CCCC1)c1ccc2nc(-c3ccco3)c(-c3ccco3)nc2c1 | 2.08 µM
O=C(/C=C/c1cccs1)Nc1ccc(Br)cn1 | 31.4 µM
Cc1cccc(NC2=Nc3ccccc3N3C2=Nc2c(c(C)nn2-c2ccccc2)C3c2ccc(O)c(O)c2)c1 (configuration not stated) | 43 µM
COc1ccc(-c2cc(C(=O)N/N=C/c3ccc(OC)c(COCC(F)(F)C(F)F)c3)c3ccccc3n2)c(OC)c1 | 99.4 µM
O=C(NN1C(=O)/C(=C/C=C/c2ccco2)SC1=S)c1ccccc1O | 4.46 µM
O=C(CSc1nnnn1-c1ccccc1)Nc1ncc2c(n1)CC(c1ccco1)CC2=O (configuration not stated) | 58.5 µM
CCN(C(=O)c1coc(=O)c(Br)c1)c1ccc2c(c1)OCO2 | 1.17 µM
Cc1ccc(C(CC(=O)NCc2ccco2)c2ccccc2)c(O)c1 (configuration not stated) | 30 µM
NN=C1C(Cl)=C(Cl)C(Cl)=C1Cl | 62.9 µM
O=C1CCCC(O)=C1N=Nc1ccc(S(=O)(=O)N2CCOCC2)cc1 | 37.6 µM
Cc1cc(C(=O)CSc2nnnn2C)c(C)n1CCc1ccc(Cl)cc1 | 84.6 µM
CCOC(=O)C1=C(N)n2c(s/c(=C\c3ccco3)c2=O)=C(C(=O)OC(C)C)C1c1ccco1 (configuration not stated) | 3.45 µM
O=C(COC(=O)c1cc(-c2ccco2)nc2ccccc12)NCc1ccc2c(c1)OCO2 | 18.2 µM
CC1CCCCC1NC(=O)COC(=O)c1c2c(nc3ccccc13)/C(=C/c1ccco1)CC2 (configuration not stated) | 7.58 µM
COC(=O)C1=C(C)NC(=O)/C1=C\c1cc(C)n(-c2ccccc2C)c1C | 28.7 µM
C(=C\c1ccco1)/c1ccc2ccccc2n1 | 9.39 µM
Cc1ccc(/C=C/C(=O)Nc2ncc(C)s2)o1 | 16 µM
COc1ccccc1NC(=O)CSc1nnc(Cc2cc(=O)[nH]c(=O)[nH]2)n1-c1ccccc1 | 66.5 µM
CNc1ccc(Br)cc(C(=O)/C=C/c2ccc(OC)cc2)c1=O | 9.15 µM
COc1ccc(-c2cc(-c3ccco3)[nH]c(=O)c2C#N)cc1 | 15.1 µM
CCc1c(C)sc(NC(=O)OC)c1C(=O)N1CCCCC1 | 30.2 µM
Cc1cc2c(c(=O)o1)C(c1ccc([N+](=O)[O-])o1)C(C#N)=C(N)O2 (configuration not stated) | 9.96 µM

SMILES | IC50
CCOc1cccc(=O)c2c(C)n(Cc3ccco3)c(C)c12 | 2.95 µM
Cc1ccc(C)c(-n2c(Cc3cc(=O)[nH]c(=O)[nH]3)nnc2SC(C)C)c1 | 77 µM
CN1C(=O)/C(=C/c2cccn2-c2ccc3ccccc3c2)C(=O)NC1=S | 44.5 µM
Nc1ncnc2oc(-c3ccco3)c(-c3ccco3)c12 | 3.36 µM
CC(C)c1ccc(N2C(=O)NC(=O)/C(=C\C=C\c3ccco3)C2=O)cc1 | 34.2 µM
O=C1CC(=O)N(Cc2ccco2)C(=O)N1 | 14.6 µM
C[n+]1cccc2cccc([O-])c21 | 13.7 µM
Cc1nc2cc(-c3ccsc3-n3c(C)ccc3C)[nH]n2c(=O)c1Cl | 2.17 µM
CN(C(=S)Nc1cccnc1)c1ccc(O)cc1 | 27 µM
O=[N+]([O-])c1ccc(N/N=C/c2ccc(O)c(O)c2O)c(S(=O)(=O)N2CCOCC2)c1 | 34 µM
Cc1cc([N+](=O)[O-])cc2c1NC(c1ccccn1)C1CC=CC21 (configuration not stated) | 49.1 µM
O=C(O)c1ccc2c(c1)C1C(Cl)C(Sc3ccccc3[N+](=O)[O-])CC1C(c1cccc([N+](=O)[O-])c1)N2 (configuration not stated) | 6.3 µM
O=C(CN1CCN(S(=O)(=O)c2ccc(Cl)s2)CC1)NCc1ccc(Cl)cc1 | 23.2 µM
O=C(Nc1cc(Cl)cc(Cl)c1)c1coc(=O)c(Br)c1 | 23.5 µM
Cc1ccc(-n2c(-c3cc(-c4ccco4)[nH]n3)n[nH]c2=S)c(Br)c1 | 6.09 µM
CC1=C(C#N)C(=O)N(C2CCS(=O)(=O)C2)C(=O)/C1=C\c1ccco1 (configuration not stated) | 2.88 µM
CCN(CC)c1ccc(NC2CC(=O)N(CCc3ccc(OC)cc3)C2=O)cc1 (configuration not stated) | 27.3 µM
O=C(Nc1ccccc1)c1ccc2nc(-c3ccco3)c(-c3ccco3)nc2c1 | 7.63 µM
Cn1c(O)c(/C=N/NC(=O)c2ccncc2)c(=O)[nH]c1=S | 51.8 µM
CCN(CC)c1ccc2c(c1)CCCN2 | 2.89 µM
COc1cc(OC)c2c(O)c3c(c(-c4c5c(c(O)c6c(OC)cc(OC)cc46)CO[C@@H](C)[C@H]5O)c2c1)[C@H](O)[C@H](C)OC3 | 30.8 µM
C=CCn1c(COc2ccc(F)cc2)nnc1SCC(=O)NC(=O)NCc1ccco1 | 93.8 µM
O=C(O)c1c2c(nc3ccc(Cl)cc13)CCC2 | 13.2 µM

SMILES | IC50
CNc1ccccc(C(=O)/C=C/c2ccccc2OC)c1=O | 6.69 µM
Cn1nc(-c2ccc(Cl)cc2)c2cc(C(=O)N3CCN(c4ccccc4)CC3)sc21 | 12.6 µM
COC(=O)CCC(=O)OC1(C)C(=O)C2=CN(CCCOC(C)C)C(c3ccc(OC)cc3)=CC2=C(Br)C1=O (configuration not stated) | 19.1 µM
C=CCN1C(=O)/C(=C\c2ccco2)C(C(=O)OC)=C1C | 45.9 µM
CN(CC(=O)Nc1cccc(F)c1)C(=O)c1cccc(-n2cccc2)c1 | 40.9 µM
O=C(CSc1nc2ccccc2n1CCc1ccccc1)c1ccc(O)c(O)c1 | 8.81 µM
COc1cc(NC(=O)CS(=O)(=O)c2ccc(C)cc2)cc(OC)c1OC | 1.42 µM
O=C1/C(=C/c2ccco2)Oc2c1ccc(O)c2CN1CCCCC1 | 4.3 µM
CC(C)N1CCC2(CC1)C(C#N)=C(N)NC(S)=C2C#N | 47.6 µM
Cc1ccc(/C=C2\SC(=S)N(c3cccnc3)C2=O)o1 | 5.44 µM
CC1=C(C(=O)Nc2ccccc2F)C(c2ccsc2)C2=C(CC(c3ccccc3)CC2=O)N1 (configuration not stated) | 4.06 µM
O=C(Nc1ccc(Br)cn1)c1coc(=O)c(Br)c1 | 79.5 µM
O=C(NCc1ccccc1)c1ccc2nc(-c3ccco3)c(-c3ccco3)nc2c1 | 4.55 µM
Cc1ccc(SCCN2C(=O)NC(C)(C)C2=O)cc1 | 24.8 µM
Cc1ccc(Cn2c(=S)[nH]c3ccc(N4CCOCC4)cc3c2=O)o1 | 3.98 µM
CC(CNc1ccccc1O)C(=O)O (configuration not stated) | 32.7 µM
O=C(Nc1ccc(F)cc1)C(c1ccccc1)N1CCN(S(=O)(=O)c2ccc3ccccc3c2)CC1 (configuration not stated) | 1.23 µM
O=C(NCc1ccccn1)c1coc(=O)c(Br)c1 | 88.3 µM
O=C1c2cccnc2C(Nc2ccccc2)N1Cc1ccco1 (configuration not stated) | 79.2 µM
O=C(O)C1Nc2c(Cl)cc(Cl)cc2C2C=CCC12 (configuration not stated) | 94.4 µM
